Reference: patent US8435949B2, “Pheromones and the luteinizing hormone for inducing proliferation of neural stem cells and neurogenesis” (Stem Cell Therapeutics Corp., priority 2004, dated 2013)
Values joined by “and” are separate entries in the source; they are usually repeats but may differ in a detail not shown here. Equal entries are not always repeated.

Assays:
[1] = system: neural stem cells; experiment: Neural stem cell culture: secondary sphere formation from dissociated primary spheres (self-renewal); assay type: cell-based, mice; conditions: for number of secondary spheres: EGF or EGF plus LH (30 nM), limited density, Exp. #1-#3
Description: Generation and differentiation of spheres from embryonic and adult forebrain were performed as described previously with minor modifications (Reynolds and Weiss, 1992; Reynolds et al., 1992). Briefly, striato-pallidum complexes were removed from mouse embryos at E14 and collected into PBS containing 0.6% glucose, penicillin (50 U/ml), and streptomycin (50 U/ml; both from Life Technologies, Gaithersburg, Md.) and then transferred into the standard culture medium composed of DMEM-F-12 (1:1), glucose (0.6%), glutamine (2 mM), sodium bicarbonate (3 mM), HEPES buffer (5 mM), insulin (25 μg/ml), transferrin (100 μg/ml), progesterone ([…]), putrescine (60 μM), and selenium chloride (30 nM) (all from Sigma, St. Louis, Mo., except glutamine from Life Technologies) For adult neural stem cell cultures, medial and lateral portions of the lateral ventricle subependyma from the adult brain were dissected from both hemispheres, pooled together, subsequently cut into 1 mm^2 fragments, and transferred into the standard culture medium containing 1.33 mg/ml trypsin, 0:67 mg/ml hyaluronidase, and 0.2 mg/ml kynurenic acid (all from Sigma). After 30 min at 37° C., the tissue was transferred to the standard culture medium containing 0.7 mg/ml trypsin inhibitor (Roche Diagnostics, Laval, Quebec, Canada). Tissue pieces were mechanically dissociated with micropipettes. Cells were seeded at various densities into the standard culture medium, which also contained EGF (20 ng/ml human recombinant; Peprotech, Rocky Hill, N.J.). Cells were cultured for 7 days in vitro (DIV) and formed floating cell clusters (spheres). All the mice for culture experiments were killed by cervical dislocation.

[2] = system: neural stem cells in the SVZ; experiment: Infusion into the lateral ventricle by osmotic pump; BrdU positive (proliferating) cells counted in the SVZ; assay type: in vivo, mice; conditions: infusion of combination of LH and prolactin or hCG and prolactin vs LH or hCG; Example 5
Description: To examine the number of progenitor cells in the SVZ after treatment, bromodeoxyuridine (BrdU) injections were used to label these cells. Animals received BrdU injections (120 mg/kg, i.p., dissolved in 0.007% NaOH in phosphate buffer) every 2 hours for a 10 hour period.
The sections were post-fixed with acetone for 30 seconds at room temperature and washed with PBS. For BrdU staining, the tissue was treated with 1M HCl for 22 minutes at 60° C. to denature cellular DNA. Sections were then incubated for 24 hours at room temperature in primary antibody (rat anti-BrdU, 1:50) diluted in 0.3% PBS-T containing 10% NGS, washed with PBS, and then incubated with goat-anti-rat secondary antibodies conjugated to biotin (1:200) for 1 hour at room temperature. After rinsing with ddH2O, sections were mounted with Fluorosave, because staining was visualized with CY3-Streptavodin, and viewed with a Zeiss Axiophot fluorescence microscope.
A one-in-ten series of coronal sections (14 μm) from the rostral tip of the lateral ventricle to caudal most aspect of the ventricles (total 10 sections) were collected. BrdU-positive cells were then counted in the defining ependymal-subependymal layer.
Sixteen 8-week-old CD-1 mice (Charles-River, Laval, Quebec, Canada) were anesthetized with sodium pentobarbital (120 mg/kg, i.p.) and implanted with osmotic pumps (Alzet 1007D; Alza, Palo Alto, Calif.). […]

Molecule | number of secondary spheres ([1]; neural stem cells isolated from female mice) | number of secondary spheres ([1]; neural stem cells isolated from male mice) | proliferation in the SVZ, prolactin added to LH or hCG [2] | self-renewal (the number of secondary spheres from primary spheres) ([1]; prolactin added with LH or hCG in neural stem cell cultures, Example 5)
EGF: EGF, 20 ng/ml human recombinant; Peprotech; comparator culture condition | 172.3 and 157.6 and 197.9 | 144.4 and 225.1 and 168.2 |  | 
prolactin: additional agent given in combination with LH or hCG (protein, UniProt P01236 29-227, looked up) Prolactin: LPICPGGAARCQVTLRDLFDRAVVLSHYIHNLSSEMFSEFDKRYTHGRGFITKAINSCHTSSLATPEDKEQAQQMNQKDFLSLIVSILRSWNEPLYHLVTEVRGMQEAPEAILSKAVEIEEQTKRLLEGMELIVSQVHPETKENEIYPVWSGLPSLQMADEESRLSAYYNLLHCLRRDSHKIDNYLKLLKCRIIHNNNC |  |  | further enhances the effects of LH or hCG | enhanced
